Laboratory results reported in the NIST ThermoML archive (doi:10.1021/je1004966).
Numbers after ± are expanded uncertainties.

Settings: Crystal; DTA

Cl.Cn1ccnc1 [1-methylimidazolium chloride]
Normal melting temperature: 86.0 ± 1 °C
